Measurements from patent US7789958B2, “Non-toxic corrosion-protection pigments based on manganese” (University of Dayton, priority 2003, dated 2010).
Values joined by “and” are separate entries in the source; they are usually repeats but may differ in a detail not shown here. Identical values can stand only once.

What was measured:
[1] = ASTM G-85.5 cyclic Prohesion test of PVB wash primers, rated by ASTM D-1654; conditions: PVB wash primer; for G-85 Proc. A: ASTM D-1654 rating Procedure A; for G-85 Proc. B: ASTM D-1654 rating Procedure B
Protocol: (§1) The corrosion inhibiting performance of MnIII and MnIV pigments was evaluated by incorporating them into primer paint formulations. […] The wash primer is composed of a resin, an acid, a corrosion inhibiting pigment, powdered talc, and carbon lampblack. The acid content of this wash primer provides a rigorous initial test of the stability and performance of the pigments. Other, more benign, polymer-based binder and resin systems might not separate the compounds based on their performance as effectively or as rapidly. […] PVB was used exclusively throughout testing to avoid preparation and compositional complications during analysis of pigment performance. However, the invention is not limited to the use of PVB. […] A small amount (0.2 g) of powdered talc (magnesium silicate) “filler” was added. Lampblack was not added to these samples. These components were mixed thoroughly by hand and 3.8 g of phosphoric acid diluent added with further mixing. This rough processing allowed direct comparisons of pigment performance to be made without complications due to powder treatments, modifications, and additives. […] This is not the conventional paint application procedure for aluminum alloys. Under normal service conditions, aluminum alloys are first subjected to a hexavalent chromium-containing conversion coating prior to primer application. However, the conversion coating was omitted so that the performance of the pigment alone could be evaluated and not the synergistic effects of hexavalent chromium (in the conversion coating) or even of barrier films (in the phosphate or anodized coatings). […] This accelerated corrosion test exposes samples to a constant salt-water fog and is a de facto test of solubility for corrosion inhibitors. […] This accelerated corrosion test exposes samples to a cycle of fog of dilute salt and ammonium sulfate at room temperature followed by forced-air drying at an elevated temperature. This is a more realistic test of the ability of a compound to inhibit corrosion. […] After the paint dried for 24 hours, each plate was scribed with an X and the plate edges were sealed with PVC tape to eliminate corrosion edge effects. Two visual observations are associated with this rating test. Procedure A involves a rating of the failure at the scribe-the representative […] of corrosion away from the scribe. […] In this way, not only the bulk corrosion-inhibiting action of a pigment through the binder can be rated, but also its “throwing power”.

[2] = ASTM B-117 static salt fog test of PVB wash primers, rated by ASTM D-1654; conditions: PVB wash primer; for B-117 Proc. A: ASTM D-1654 rating Procedure A; for B-117 Proc. B: ASTM D-1654 rating Procedure B
Protocol: as §1

[3] = cited from earlier work
[4] = 1.49 × 10^−3 M (20% of Cr), 144 hours, 2024-T3 (alloy taken from column order of Table 7)
[5] = 1.49 × 10^−3 M (20% of Cr), 144 hours, 7075-T6 (alloy taken from column order of Table 7)
[6] = 7.44 × 10^−4 M (10% of Cr), 139 hours, 2024-T3 (alloy taken from column order of Table 7)
[7] = 7.44 × 10^−4 M (10% of Cr), 139 hours, 7075-T6 (alloy taken from column order of Table 7)
[8] = 7.44 × 10^−4 M (10% of Cr), 117 hours, 2024-T3 (alloy taken from column order of Table 7)
[9] = 7.44 × 10^−4 M (10% of Cr), 117 hours, 7075-T6 (alloy taken from column order of Table 7)

| Compound | G-85 Proc. A [1, 6] | G-85 Proc. A [1, 7] | G-85 Proc. B [1, 6] | G-85 Proc. B [1, 7] | B-117 Proc. A [2, 6] | B-117 Proc. A [2, 7] | B-117 Proc. B [2, 6] | B-117 Proc. B [2, 7] | G-85 Proc. A [1, 8] | G-85 Proc. A [1, 9] | G-85 Proc. B [1, 8] | G-85 Proc. B [1, 9] | B-117 Proc. A [2, 8] | B-117 Proc. A [2, 9] | further results |
| --- | --- | --- | --- | --- | --- | --- | --- | --- | --- | --- | --- | --- | --- | --- | --- |
| barium hexaiodatomanganate |  |  |  |  |  |  |  |  |  |  |  |  |  |  | G-85 Proc. A [1, 4]: 7 and 8; G-85 Proc. A [1, 5]: 8 and 7; G-85 Proc. B [1, 4]: 7 and 8; G-85 Proc. B [1, 5]: 8 and 7; B-117 Proc. A [2, 4]: 5; B-117 Proc. A [2, 5]: 5; B-117 Proc. B [2, 4]: 3; B-117 Proc. B [2, 5]: 3 |
| [O]=[Cr](=[O])([O-])[O-].[O]=[Pb].[Pb+2] [basic lead chromate] |  |  |  |  |  |  |  |  |  |  |  |  |  |  | solubility in water relative to lead chromate [3]: slightly lower solubility in water |
| strontium 13-vanadatomanganate | 6 | 6 | 5 and 6 | 5 and 6 | 7 | 7 | 6 | 6 |  |  |  |  |  |  |  |
| barium 9-molybdomanganate |  |  |  |  |  |  |  |  | 7 | 8 and 7 | 6 | 7 and 6 | 4 | 3 |  |
| zinc 9-molybdomanganate |  |  |  |  |  |  |  |  | 7 | 7 and 8 | 7 and 6 | 7 | 5 | 5 | B-117 Proc. B [2, 8]: 3; B-117 Proc. B [2, 9]: 4 and 3 |
| calcium 9-molybdomanganate |  |  |  |  |  |  |  |  | 6 | 7 | 5 | 6 | 6 | 5 | B-117 Proc. B [2, 8]: 3; B-117 Proc. B [2, 9]: 4 |
| [O]1[Pb][O][Pb]12[O][Pb][O]2 [red lead] |  |  |  |  |  |  |  |  |  |  |  |  |  |  | PbVI solubility ([3]; Glasstone, J. Chem. Soc. 121: 1456-69, 1922): 10^−17 moles/liter Pb^+4 |
| zinc 13-vanadatomanganate | 7 | 7 and 6 | 6 and 5 | 6 and 5 | 8 | 7 | 9 | 8 |  |  |  |  |  |  |  |
| calcium 13-vanadatomanganate | 7 | 7 | 6 | 6 | 8 | 7 | 7 | 6 |  |  |  |  |  |  |  |
| barium 13-vanadatomanganate | 6 and 7 | 6 | 6 | 5 | 7 | 7 | 8 and 7 | 6 |  |  |  |  |  |  |  |
| magnesium 13-vanadatomanganate | 7 | 6 and 7 | 6 | 5 and 6 | 9 | 7 | 7 | 8 |  |  |  |  |  |  |  |
| strontium 9-molybdomanganate |  |  |  |  |  |  |  |  | 6 | 6 | 5 | 5 | 5 | 4 and 5 |  |
